For 14 molecules, EC50 and Emax results are on record in patent US20240208992A1, “MACROCYCLES AS CFTR MODULATORS” (Idorsia Pharmaceuticals Ltd, priority 2021, published 2024).

For the assay, the target named is human F508del-CFTR (Homo sapiens, UniProt P13569, DEL508-508). Description: F508del-CFTR cell surface expression (corrector activity), DiscoveRx ß-galactosidase complementation chemiluminescence assay in recombinant U2OS cell line.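 As to all read-outs here: U2OS cells co-expressing ProLink-tagged F508del-CFTR and a membrane-anchored enzyme acceptor, where more surface CFTR restores β-galactosidase activity measured by chemiluminescence.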 The note with it: U2OS cell line, 16h compound incubation; for EC50: EC50, F508del-CFTR cell surface expression, geomean values; for Emax: in relation to the Emax of the corrector lumacaftor (=100%), arithmetic mean values.
Sequence of human F508del-CFTR (P13569 with tags, fused parts or gaps DEL508-508): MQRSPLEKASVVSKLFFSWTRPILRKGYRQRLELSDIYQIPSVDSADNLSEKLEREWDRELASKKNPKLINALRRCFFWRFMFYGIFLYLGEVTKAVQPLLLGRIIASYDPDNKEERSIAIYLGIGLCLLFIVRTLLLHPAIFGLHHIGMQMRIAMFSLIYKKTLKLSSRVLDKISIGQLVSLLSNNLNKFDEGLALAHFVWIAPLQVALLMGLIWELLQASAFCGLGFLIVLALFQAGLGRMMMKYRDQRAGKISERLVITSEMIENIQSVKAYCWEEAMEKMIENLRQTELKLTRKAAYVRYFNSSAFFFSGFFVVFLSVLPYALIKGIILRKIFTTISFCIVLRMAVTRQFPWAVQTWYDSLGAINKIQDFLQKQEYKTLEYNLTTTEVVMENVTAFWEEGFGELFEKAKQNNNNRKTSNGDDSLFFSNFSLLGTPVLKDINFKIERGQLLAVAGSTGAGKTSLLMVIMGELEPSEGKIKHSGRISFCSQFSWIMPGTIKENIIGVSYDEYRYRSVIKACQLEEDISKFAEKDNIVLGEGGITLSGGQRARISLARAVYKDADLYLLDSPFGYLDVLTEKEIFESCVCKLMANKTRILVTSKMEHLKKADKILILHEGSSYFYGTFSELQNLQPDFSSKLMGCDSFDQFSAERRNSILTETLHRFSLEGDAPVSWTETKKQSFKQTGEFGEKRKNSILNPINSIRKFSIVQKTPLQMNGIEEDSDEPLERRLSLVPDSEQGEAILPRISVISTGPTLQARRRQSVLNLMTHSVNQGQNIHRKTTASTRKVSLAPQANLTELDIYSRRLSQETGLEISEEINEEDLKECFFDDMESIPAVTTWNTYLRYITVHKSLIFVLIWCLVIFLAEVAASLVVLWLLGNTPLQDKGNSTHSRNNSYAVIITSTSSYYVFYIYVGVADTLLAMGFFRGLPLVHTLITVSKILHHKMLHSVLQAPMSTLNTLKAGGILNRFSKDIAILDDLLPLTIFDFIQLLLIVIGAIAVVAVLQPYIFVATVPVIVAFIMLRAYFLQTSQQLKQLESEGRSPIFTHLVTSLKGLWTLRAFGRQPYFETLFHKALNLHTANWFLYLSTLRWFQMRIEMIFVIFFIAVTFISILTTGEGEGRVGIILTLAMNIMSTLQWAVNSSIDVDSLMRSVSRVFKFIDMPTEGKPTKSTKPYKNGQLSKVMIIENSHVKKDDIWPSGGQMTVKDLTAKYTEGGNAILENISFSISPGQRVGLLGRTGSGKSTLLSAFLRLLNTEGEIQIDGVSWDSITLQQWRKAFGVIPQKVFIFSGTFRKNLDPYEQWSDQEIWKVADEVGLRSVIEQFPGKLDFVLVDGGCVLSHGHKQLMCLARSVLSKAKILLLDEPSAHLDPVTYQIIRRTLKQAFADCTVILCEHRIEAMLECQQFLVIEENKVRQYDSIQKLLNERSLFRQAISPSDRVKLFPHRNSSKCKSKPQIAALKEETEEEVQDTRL

As a reminder, the EC50 is the concentration giving half of the maximal effect. A word on the Emax: it is the greatest response seen or fitted, relative to the assay's reference. As for `CC(C)C[C@H]1C(=O)N2CCCC[C@@H]2C(=O)N[C@H](Cc2ccccc2)COc2cnc3ccccc3c2C(=O)N[C@H](C(=O)NCCc2nc(-c3ccccc3)no2)CC(=O)N1C` [Example 76, (9S,13S,19aR,22R)-22-benzyl-13-isobutyl-12-methyl-7,11,14,20-tetraoxo-N-(2-(3-phenyl-1,2,4-oxadiazol-5-yl)ethyl)-7,8,9,10,11,12,13,14,17,18,19,19a,20,21,22,23-hexadecahydro-16H-pyrido[2′,1′:6,7][1]oxa[4,7,10,14]tetraazacycloheptadecino[17,16-c]quinoline-9-carboxamide], the EC50 came out at 196 nM. Also, the Emax (U2OS) came to 283%.
Take `CC(C)C[C@H]1C(=O)N2CCCC[C@@H]2C(=O)N[C@H](Cc2ccccc2)COc2cnc3ccccc3c2C(=O)N[C@H](C(=O)NCCc2ccccc2)CC(=O)N1C` [Example 77, (9S,13S,19aR,22R)-22-benzyl-13-isobutyl-12-methyl-7,11,14,20-tetraoxo-N-phenethyl-7,8,9,10,11,12,13,14,17,18,19,19a,20,21,22,23-hexadecahydro-16H-pyrido[2′,1′:6,7][1]oxa[4,7,10,14]tetraazacycloheptadecino[17,16-c]quinoline-9-carboxamide]: the EC50 was determined as 231 nM. The Emax (U2OS) is 237%.
On the same counts, the results for `Cc1nc(CCNC(=O)[C@@H]2CC(=O)N(C)[C@@H](CC(C)C)C(=O)N3CCCC[C@@H]3C(=O)N[C@H](Cc3ccccc3)COc3cnc4ccccc4c3C(=O)N2)no1` [Example 78, (9S,13S,19aR,22R)-22-benzyl-13-isobutyl-12-methyl-N-(2-(5-methyl-1,2,4-oxadiazol-3-yl)ethyl)-7,11,14,20-tetraoxo-7,8,9,10,11,12,13,14,17,18,19,19a,20,21,22,23-hexadecahydro-16H-pyrido[2′,1′:6,7][1]oxa[4,7,10,14]tetraazacycloheptadecino[17,16-c]quinoline-9-carboxamide] are 544 nM and 277%.
On the same counts, the results for `CCc1nc(CCNC(=O)[C@@H]2CC(=O)N(C)[C@@H](CC(C)C)C(=O)N3CCCC[C@@H]3C(=O)N[C@H](Cc3ccccc3)COc3cnc4ccccc4c3C(=O)N2)no1` [Example 79, (9S,13S,19aR,22R)-22-benzyl-N-(2-(5-ethyl-1,2,4-oxadiazol-3-yl)ethyl)-13-isobutyl-12-methyl-7,11,14,20-tetraoxo-7,8,9,10,11,12,13,14,17,18,19,19a,20,21,22,23-hexadecahydro-16H-pyrido[2′,1′:6,7][1]oxa[4,7,10,14]tetraazacycloheptadecino[17,16-c]quinoline-9-carboxamide] are 327 nM and 296%.
The corresponding values for `CC(C)C[C@H]1C(=O)N2CCCC[C@@H]2C(=O)N[C@H](Cc2ccccc2)COc2cnc3ccccc3c2C(=O)N[C@H](C(=O)NCCc2noc(C3CC3)n2)CC(=O)N1C` [Example 80, (9S,13S,19aR,22R)-22-benzyl-N-(2-(5-cyclopropyl-1,2,4-oxadiazol-3-yl)ethyl)-13-isobutyl-12-methyl-7,11,14,20-tetraoxo-7,8,9,10,11,12,13,14,17,18,19,19a,20,21,22,23-hexadecahydro-16H-pyrido[2′,1′:6,7][1]oxa[4,7,10,14]tetraazacycloheptadecino[17,16-c]quinoline-9-carboxamide] are 170 nM and 308%.
Turning to `COc1cccc(CCNC(=O)[C@@H]2CC(=O)N(C)[C@@H](CC(C)C)C(=O)N3CCCC[C@@H]3C(=O)N[C@H](Cc3ccccc3)COc3cnc4ccccc4c3C(=O)N2)c1OC` [Example 81, (9S,13S,19aR,22R)-22-benzyl-N-(2,3-dimethoxyphenethyl)-13-isobutyl-12-methyl-7,11,14,20-tetraoxo-7,8,9,10,11,12,13,14,17,18,19,19a,20,21,22,23-hexadecahydro-16H-pyrido[2′,11:6,7][1]oxa[4,7,10,14]tetraazacycloheptadecino[17,16-c]quinoline-9-carboxamide], the EC50 worked out at 233 nM. Besides, the Emax (U2OS) was determined as 232%.
Consider `Cc1oncc1CCNC(=O)[C@@H]1CC(=O)N(C)[C@@H](CC(C)C)C(=O)N2CCCC[C@@H]2C(=O)N[C@H](Cc2ccccc2)COc2cnc3ccccc3c2C(=O)N1` [Example 82, (9S,13S,19aR,22R)-22-benzyl-13-isobutyl-12-methyl-N-(2-(5-methylisoxazol-4-yl)ethyl)-7,11,14,20-tetraoxo-7,8,9,10,11,12,13,14,17,18,19,19a,20,21,22,23-hexadecahydro-16H-pyrido[2′,1′:6,7][1]oxa[4,7,10,14]tetraazacycloheptadecino[17,16-c]quinoline-9-carboxamide], for which the EC50 is 598 nM. Also, for the setting “U2OS”, the Emax is 246%.
Take `CC(C)C[C@H]1C(=O)N2CCCC[C@@H]2C(=O)N[C@H](Cc2ccccc2)COc2cnc3ccccc3c2C(=O)N[C@H](C(=O)NCCc2cnn(C)c2)CC(=O)N1C` [Example 83, (9S,13S,19aR,22R)-22-benzyl-13-isobutyl-12-methyl-N-(2-(1-methyl-1H-pyrazol-4-yl)ethyl)-7,11,14,20-tetraoxo-7,8,9,10,11,12,13,14,17,18,19,19a,20,21,22,23-hexadecahydro-16H-pyrido[2′,11:6,7][1]oxa[4,7,10,14]tetraazacycloheptadecino[17,16-c]quinoline-9-carboxamide]: the EC50 was found to be 731 nM. The Emax (U2OS) was found to be 309%.
The corresponding values for `COc1ccc(CCNC(=O)[C@@H]2CC(=O)N(C)[C@@H](CC(C)C)C(=O)N3CCCC[C@@H]3C(=O)N[C@H](Cc3ccccc3)COc3cnc4ccccc4c3C(=O)N2)cc1` [Example 84, (9S,13S,19aR,22R)-22-benzyl-13-isobutyl-N-(4-methoxyphenethyl)-12-methyl-7,11,14,20-tetraoxo-7,8,9,10,11,12,13,14,17,18,19,19a,20,21,22,23-hexadecahydro-16H-pyrido[2′,1′:6,7][1]oxa[4,7,10,14]tetraazacycloheptadecino[17,16-c]quinoline-9-carboxamide] are 274 nM and 299%.
The corresponding values for `CC(C)C[C@H]1C(=O)N2CCCC[C@@H]2C(=O)N[C@H](Cc2ccccc2)COc2cnc3ccccc3c2C(=O)N[C@H](C(=O)NCCc2noc(C(C)(C)C)n2)CC(=O)N1C` [Example 85, (9S,13S,19aR,22R)-22-benzyl-N-(2-(5-(tert-butyl)-1,2,4-oxadiazol-3-yl)ethyl)-13-isobutyl-12-methyl-7,11,14,20-tetraoxo-7,8,9,10,11,12,13,14,17,18,19,19a,20,21,22,23-hexadecahydro-16H-pyrido[2′,1′:6,7][1]oxa[4,7,10,14]tetraazacycloheptadecino[17,16-c]quinoline-9-carboxamide] are 260 nM and 244%.
The corresponding values for `Cc1cc(C)cc(-c2noc(CCNC(=O)[C@@H]3CC(=O)N(C)[C@@H](CC(C)C)C(=O)N4CCCC[C@@H]4C(=O)N[C@H](Cc4ccccc4)COc4cnc5ccccc5c4C(=O)N3)n2)c1` [Example 86, (9S,13S,19aR,22R)-22-benzyl-N-(2-(3-(3,5-dimethylphenyl)-1,2,4-oxadiazol-5-yl)ethyl)-13-isobutyl-12-methyl-7,11,14,20-tetraoxo-7,8,9,10,11,12,13,14,17,18,19,19a,20,21,22,23-hexadecahydro-16H-pyrido[2′,1′:6,7][1]oxa[4,7,10,14]tetraazacycloheptadecino[17,16-c]quinoline-9-carboxamide] are 314 nM and 157%.
In the case of `CC(C)C[C@H]1C(=O)N2CCCC[C@@H]2C(=O)N[C@H](Cc2ccccc2)COc2cnc3ccccc3c2C(=O)N[C@H](C(=O)NCCc2nc(-c3ccccc3OC(F)(F)F)no2)CC(=O)N1C` [Example 87, (9S,13S,19aR,22R)-22-benzyl-13-isobutyl-12-methyl-7,11,14,20-tetraoxo-N-(2-(3-(2-(trifluoromethoxy)phenyl)-1,2,4-oxadiazol-5-yl)ethyl)-7,8,9,10,11,12,13,14,17,18,19,19a,20,21,22,23-hexadecahydro-16H-pyrido[2′,1′:6,7][1]oxa[4,7,10,14]tetraazacycloheptadecino[17,16-c]quinoline-9-carboxamide], the EC50 amounted to 162 nM. For the same molecule, the Emax (U2OS) came out at 190%.
The corresponding values for `CC(C)C[C@H]1C(=O)N2CCCC[C@@H]2C(=O)N[C@H](Cc2ccccc2)COc2cnc3ccccc3c2C(=O)N[C@H](C(=O)NCCc2nnc(-c3ccccc3OC(F)(F)F)[nH]2)CC(=O)N1C` [Example 88, (9S,13S,19aR,22R)-22-benzyl-13-isobutyl-12-methyl-7,11,14,20-tetraoxo-N-(2-(5-(2-(trifluoromethoxy)phenyl)-4H-1,2,4-triazol-3-yl)ethyl)-7,8,9,10,11,12,13,14,17,18,19,19a,20,21,22,23-hexadecahydro-16H-pyrido[2′,1′:6,7][1]oxa[4,7,10,14]tetraazacycloheptadecino[17,16-c]quinoline-9-carboxamide] are 230 nM and 112%.
`CC(C)C[C@H]1C(=O)N2CCCC[C@@H]2C(=O)N[C@H](Cc2ccccc2)COc2cnc3ccccc3c2C(=O)N[C@H](C(=O)NCCc2cc(C(C)(C)C)on2)CC(=O)N1C` [Example 89, (9S,13S,19aR,22R)-22-benzyl-N-(2-(5-(tert-butyl)isoxazol-3-yl)ethyl)-13-isobutyl-12-methyl-7,11,14,20-tetraoxo-7,8,9,10,11,12,13,14,17,18,19,19a,20,21,22,23-hexadecahydro-16H-pyrido[2′,1′:6,7][1]oxa[4,7,10,14]tetraazacycloheptadecino[17,16-c]quinoline-9-carboxamide]: the EC50 turned out to be 132 nM and the Emax stood at 262%.
